In patent US20260183399A1, “METHOD FOR MODULATING KINASE ACTIVITY AND USE THEREOF” (CENTER FOR EXCELLENCE IN MOLECULAR CELL SCIENCE, CHINESE …, priority 2022, published 2026):

Experiments:
LKB1 kinase = biological target: T1, LKB1 kinase (Homo sapiens, UniProt Q15831); assay: In vitro kinase experiment with LKB1 kinase (excluding STRAD1 and MO25) and His-AMPK α1; format: biochemical; settings: metabolite 100 μM; FIG. 1J
T1 construct: the general method says FLAG-LKB1 instead) (N); made in house; host or cells: HEK293T (293T) cells, transfected; immunoprecipitation
T1 sequence (Q15831 1-433): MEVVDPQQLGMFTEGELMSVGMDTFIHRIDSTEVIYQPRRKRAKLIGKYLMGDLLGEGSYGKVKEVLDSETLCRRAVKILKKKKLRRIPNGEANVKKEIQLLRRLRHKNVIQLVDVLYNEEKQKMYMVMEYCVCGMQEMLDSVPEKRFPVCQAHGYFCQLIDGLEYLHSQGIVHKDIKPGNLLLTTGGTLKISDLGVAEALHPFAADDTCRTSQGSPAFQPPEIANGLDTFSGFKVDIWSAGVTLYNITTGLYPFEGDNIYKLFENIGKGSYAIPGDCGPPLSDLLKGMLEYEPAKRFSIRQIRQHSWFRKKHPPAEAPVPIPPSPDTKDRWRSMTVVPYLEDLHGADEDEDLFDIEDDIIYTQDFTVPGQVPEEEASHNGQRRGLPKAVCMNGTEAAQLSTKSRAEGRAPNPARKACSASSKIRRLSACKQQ
Protocol: (§1) The final reaction system for kinase experiment was: 50 mM Tris HCl, 10 mM MgCl2, 1 mM DTT, and 100 μM ATP. HEK293T cells were co-transfected with equal amounts of GST-LKB1, FLAG-STRAD, MYC-MO25 plasmids or solely transfected with FLAG-LKB1 plasmid. The cells were collected, processed for immunoprecipitation using GST beads or FLAG beads, washed three times with cell lysis buffer containing NP-40, and washed twice with kinase reaction buffer. The His-AMPK protein was induced and purified using E. coli BL21 competent cells. The kinase was incubated with metabolites at 100 μM at room temperature for 15 minutes before reaction, then added with reaction buffer and His-AMPK protein, and reacted at […] for 30 minutes. The phosphorylation of AMPK protein was detected by Western blot.
The final reaction system for the kinase experiment was 50 mM Tris-HCl, 10 mM MgCl2, 1 mM DTT, and 100 μM ATP. […] The kinase complex was pre-incubated with metabolites at room temperature for 15 minutes before reaction. Then the reaction buffer and His-AMPK protein were added, and reacted at 37° C. for 30 minutes. The phosphorylation of AMPK protein was detected by Western blot.

[1] = test system: AMPK α-catalytic subunit phosphorylation in 293T cells; assay: Metabolite treatment of glucose-starved 293T cells, Western blot of AMPK phosphorylation; format: cell-based; settings: glucose starvation 2 hours
Protocol: Cells were subjected to glucose starvation treatment using glucose free culture medium for 2 hours. The corresponding metabolites were added to the culture medium according to the instructions shown in FIG. 1C and FIG. 1D, so that their concentration in the culture medium reached the labeled level, if there was no labeling, the concentration of metabolites in the culture medium was […]. After treatment, cells were collected to prepare lysis buffer, and the changes in specific proteins and phosphorylation of specific sites were detected by Western blot.
When the expression and function of these metabolic enzymes are inhibited, their corresponding products are decreased. Therefore, we speculate that there may be a mechanism by which AMPK is regulated by metabolite molecules in the glycolytic metabolic pathway, and the activation level of AMPK is related to metabolite content. To verify this hypothesis, we added different doses of exogenous 3-phosphoglycerate (3-PG) to 293T cells subjected to glucose starvation treatment (activation of AMPK signaling pathway). […] After treatment, cells were collected to prepare lysate, and the changes in specific proteins and the changes in phosphorylation sites of AMPK α-catalytic subunit were detected by Western blot.

[2] = biological target: T2, LKB1-STRAD1-MO25 kinase complex (Homo sapiens, UniProt Q15831); assay: In vitro kinase experiment with LKB1 kinase complex and His-AMPK α1; format: biochemical
T2 construct: GST (N); made in house; host or cells: HEK293T (293T) cells, co-transfected
T2 sequence (Q15831 1-433): T1 sequence (Q15831 1-433)
T2 sequence (Q7RTN6 1-431 partner): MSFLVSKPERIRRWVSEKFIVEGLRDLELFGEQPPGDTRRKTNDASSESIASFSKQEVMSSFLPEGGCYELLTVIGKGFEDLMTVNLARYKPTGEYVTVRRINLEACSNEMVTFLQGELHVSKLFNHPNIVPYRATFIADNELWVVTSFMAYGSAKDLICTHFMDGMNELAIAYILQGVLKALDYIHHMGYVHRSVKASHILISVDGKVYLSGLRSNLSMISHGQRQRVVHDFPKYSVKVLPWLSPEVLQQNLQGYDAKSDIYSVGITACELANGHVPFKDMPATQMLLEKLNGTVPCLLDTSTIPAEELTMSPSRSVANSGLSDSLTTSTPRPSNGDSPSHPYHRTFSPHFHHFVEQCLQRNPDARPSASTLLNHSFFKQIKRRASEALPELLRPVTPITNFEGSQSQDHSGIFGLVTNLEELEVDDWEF
T2 sequence (Q9Y376 1-341 partner): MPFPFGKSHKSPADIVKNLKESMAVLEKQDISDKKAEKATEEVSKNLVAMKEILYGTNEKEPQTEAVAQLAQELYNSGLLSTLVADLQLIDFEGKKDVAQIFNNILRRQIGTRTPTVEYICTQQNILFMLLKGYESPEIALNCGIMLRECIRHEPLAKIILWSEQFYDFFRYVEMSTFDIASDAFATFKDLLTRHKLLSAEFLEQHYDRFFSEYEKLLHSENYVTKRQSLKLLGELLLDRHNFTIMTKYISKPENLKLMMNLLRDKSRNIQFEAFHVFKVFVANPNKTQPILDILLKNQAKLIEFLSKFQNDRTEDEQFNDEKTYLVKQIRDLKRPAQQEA
Protocol: as §1
Given that LKB1 is a key upstream kinase that phosphorylates and activates the AMPK a subunit, we speculate that the aforementioned metabolites may affect the phosphorylation activation of AMPK a subunit by LKB1 kinase or LKB1 kinase complex. To verify this hypothesis, GST-LKB1, FLAG-STRAD1, and MYC-MO25 were co-transfected into 293T cells (2 μg of each expression plasmid, and transfected into about 7×10^6 cells). After 48 hours, cells were collected and lysed, and then the LKB1-STRAD1-MO25 kinase complex was subjected to glutathione-agarose bead affinity purification, and co-incubated with the recombinant His-AMPK α1 subunit expressed in E. coli for in vitro kinase experiments. The final reaction system for kinase experiment was: 50 mM Tris HCl, 10 mM MgCl2, 1 mM DTT, 100 μM ATP. At the same time, metabolites such as 3-phosphoglyceraldehyde (GAP) or 3-phosphoglycerate (3-PG) were added to 100 μM according to the diagram (as shown in FIG. 1H), or to a concentration of 50-400 μM as shown in the diagram (as shown in FIG. 1I). The kinase complex was pre-incubated with metabolites at room temperature for 15 minutes before reaction. Then the reaction buffer and His-AMPK protein were added, and reacted at 37° C. for 30 minutes. The phosphorylation of AMPK protein was detected by Western blot.

[3] = biological target: T3, recombinant human PGK1 protein (Homo sapiens, UniProt P00558); assay: In vitro enzyme activity of PGK1 (ATP detection kit, IC50 inhibition curve); format: biochemical; settings: S33 0, 1, 3, 5, 7, 10, 30 μM; 37° C. for 25 minutes; FIG. 1F
T3 construct: made in house; host or cells: Escherichia coli
T3 sequence (P00558 1-417): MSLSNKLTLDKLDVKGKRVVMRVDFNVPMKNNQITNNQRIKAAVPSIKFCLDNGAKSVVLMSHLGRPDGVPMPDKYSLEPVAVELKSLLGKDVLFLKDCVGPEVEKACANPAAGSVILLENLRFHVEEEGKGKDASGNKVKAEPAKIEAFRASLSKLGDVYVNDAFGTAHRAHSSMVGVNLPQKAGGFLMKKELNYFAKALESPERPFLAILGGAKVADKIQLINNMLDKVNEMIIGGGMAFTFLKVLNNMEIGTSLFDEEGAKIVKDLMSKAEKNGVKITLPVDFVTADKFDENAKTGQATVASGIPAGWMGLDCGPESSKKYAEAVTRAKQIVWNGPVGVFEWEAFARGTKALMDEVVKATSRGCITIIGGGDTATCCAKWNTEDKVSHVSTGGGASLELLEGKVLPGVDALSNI
Protocol: A substrate buffer mixture with a final concentration of 10 mM KH2PO4, pH7.0, 2 mM GAP, 0.6 mM β-NAD, 0.4 mM ADP, 10 mM MgSO4, 200 mM Glycine, and 0.01 μg/μL GAPDH was prepared. The purified hPGK1 recombinant protein was diluted to 0.2 ng/μL. Inhibitors were added to the protein and a concentration gradient was set up. Each reaction was added with 100 μl of substrate and a mixture of 100 μl hPGK1 protein and inhibitor, and reacted at 37° C. for 25 minutes. After centrifuged at 10000 rpm for 10 minutes at 4° C., 100 μl of supernatant was taken. In the ATP detection kit (Beyotime S0026), the ATP detection solution was diluted with ATP detection diluent at a ratio of 1:10. In a 96 well blank plate, each well was added with 100 μl of diluted detection solution, and let it stand at room temperature for 5 minutes, added with 100 μl of supernatant from enzyme activity reaction, and reacted for 5 seconds, and a microplate reader was used to read the fluorescence value. The relative enzyme activity was calculated based on fluorescence values and IC50 values were calculated using GraphPad nonlinear regression fitting.
The compound (S33, patent number: ZL201610826187. X) reported in the previous patent is a PGK1 inhibitor (FIG. 1E), and we determined the inhibitory activity of compound S33 on PGK1. […]

[4] = test system: AMPK pathway (AMPK α-catalytic subunit and ACC1 phosphorylation) in HeLa and 293T cells; assay: S33 treatment of HeLa and 293T cells, Western blot of AMPK pathway; format: cell-based; settings: 2, 5 and 10 μM, 2 hours, dose-dependent, FIG. 1G
Protocol: In order to investigate the regulatory effect of PGK1 inhibition on AMPK pathway, different concentrations of S33 (2, 5, and 10 μM, respectively) were added to the culture supernatants of HeLa and 293T cells, and treated for 2 hours. Cell lysate was collected and the changes in specific proteins and in AMPK α-catalytic subunit phosphorylation sites, as well as the phosphorylation of the classical substrate ACC1, downstream of the AMPK pathway, were detected by western blot.

SMILES	phosphorylation of AMPK α1 by LKB1 kinase (LKB1 kinase)	phosphorylation of AMPK α1 by LKB1 kinase complex ([2]; metabolite 100 μM, FIG. 1H)	other results
O=C(COP(=O)(O)O)[C@@H](O)[C@H](O)[C@H](O)COP(=O)(O)O [1,6-fructose diphosphate]	had no such effect	–	–
O=C(O)[C@@H](CO)OP(=O)(O)O [2-phosphoglycerate]	significantly inhibit	–	AMPK α-catalytic subunit phosphorylation signaling ([1]; metabolite 200 μM, FIG. 1D): inhibitory effects
O=CC(O)COP(=O)(O)O (stereo not drawn) [3-phosphoglyceraldehyde]	had no such effect	had no such effect	–
O=C(O)[C@H](O)COP(=O)(O)O [3-phosphoglycerate]	significantly inhibit	strongly inhibited	intracellular AMPK α-catalytic subunit phosphorylation signaling ([1]; metabolite 100-800 μM, FIG. 1C): significantly inhibited intracellular AMPK α-catalytic subunit phosphorylation signaling in a dose-dependent manner; phosphorylation of AMPK α1 by LKB1 kinase complex ([2]; metabolite 50-400 μM, FIG. 1I): inhibits the phosphorylation of AMPK α1 by LKB1 kinase complex in a dose-dependent manner
COc1cc2nc(N3CCC(N(C)C(=O)C4CCCO4)CC3)nc(N3CCOCC3)c2cc1Cl (stereo not drawn) [S33]	–	–	inhibitory activity of compound on PGK1 [3]: effective inhibitor of PGK1; ACC1 phosphorylation [4]: upregulate; AMPK α-catalytic subunit phosphorylation [4]: upregulate
